Laboratory results: patent US20130225545A1, “PORPHYRIN TREATMENT OF NEURODEGENERATIVE DISEASES” (priority 2010, published 2013)
“Also recorded” adds a separate entry of the source.

Experiments:
[1] = Plasma concentration in C57BL/6 mice after a single dose (15 mg/kg) by the i.p. or p.o. route; type: in vivo; conditions: for plasma concentration after i.p. administration / plasma concentration after p.o. administration: C57BL/6 mice; for plasma concentration after i.p. administration: single dose 15 mg/kg i.p.; for plasma concentration after p.o. administration: single dose 15 mg/kg p.o.; for bioavailability / pharmacokinetic properties, overall assessment: mice, i.p. and p.o., summary in words
From the text: (§1) Points represent mean±S.E.M. Each point is the average of 3-4 animals.
(§2) Points represent mean+S.E.M. Bars represent mean+S.E.M. n=3-6 mice per group. […] Bars represent mean+S.E.M. n=3-6 mice per group. […] Bars represent mean+S.E.M. #p<0.01 vs MPTP. One-way, ANOVA, n=6 mice per group.
(§3) Points represent mean±S.E.M. Each point is the average of 3-4 animals. […] Bars represent mean+S.E.M. n=6-8 mice per group. […] Bars represent mean+S.E.M. #p<0.01 vs MPTP. One-way, ANOVA, n=6 mice per group.
(§4) Points represent mean+S.E.M. Each point is the average of 4 animals. […] Bars represent mean+S.E.M. n=6 mice per group. […] Bars represent mean+S.E.M. #p<0.01 vs MPTP. One-way, ANOVA, n=6 mice per group.
Points represent mean+S.E.M. Each point is the average of 4 animals.

[2] = Brain concentration in C57BL/6 mice after a single dose (15 mg/kg) by the i.p. or p.o. route; type: in vivo; conditions: for penetration of the BBB: 15 mg/kg, i.p. (AEOL11216), i.p. and p.o. (AEOL11203, AEOL1114); for concentration in the brain, stable for 24 hr after i.p. administration / concentration in the brain after i.p. administration / concentration in the brain for 24 hr after p.o. administration / concentration in the brain after p.o. administration: C57BL/6 mice; for concentration in the brain, stable for 24 hr after i.p. administration / concentration in the brain after i.p. administration: single dose 15 mg/kg i.p.; for concentration in the brain after i.p. administration / concentration in the brain after p.o. administration: result in words; for concentration in the brain for 24 hr after p.o. administration / concentration in the brain after p.o. administration: single dose 15 mg/kg p.o.
From the text: as §1, §2, §3, §4

[3] = Solubility of the compound for dosing; type: physicochemical; conditions: result in words
[4] = tested on: MPTP mouse model; assay: Dopamine levels in the striata 7 days after injection of MPTP; type: in vivo, C57BL/6 mice; conditions: for protection against MPTP-induced striatal dopamine depletion: 1 hr prior to MPTP and daily thereafter, MPTP 15 mg/kg x3 s.c., 7 days
From the text: as §2, §3, §4

[5] = tested on: MPTP mouse model; assay: GSH, GSSG, GSH/GSSG and 3NT/Tyr ratios in ventral midbrain/SN 24 hours after MPTP; type: in vivo, C57/B6 mice; conditions: for protection against MPTP-induced alteration of 3-NT/tyrosine ratio / protection against MPTP-induced alteration of GSH/GSSG: 24 hours after MPTP
From the text: as §2, §3, §4

[6] = tested on: MPTP metabolism; assay: Striatal MPP+ levels 3 h after MPTP (effects on MPTP metabolism); type: in vivo, mice; conditions: 15 mg/kg i.p. 1 h before MPTP (15 mg/kg s.c.)
From the text: Bars represent mean+S.E.M. n=4-6 mice per group.

[7] = tested on: MPTP mouse model; assay: Stereological count of TH+ neurons in the substantia nigra pars compacta 7 days after MPTP; type: in vivo, C57BL/6 mice; conditions: MPTP 15 mg/kg x3 s.c.
Experimental: as §2
Assessment of tyrosine hydroxylase (TH) neurons: Free-floating […] mesencephalic serial sections will be processed with antibodies against TH for immunohistochemistry (Vector Laboratories) and counterstained with cresyl violet. Total numbers of TH and cresyl violet-stained neurons in SNpc is counted stereologically with STEREO INVESTIGATOR software.
Stereological analysis and TH immunohistochemistry: The 40-μm sections including the whole SN pars compacta (SNpc) from bregma −2.60 to −3.80 mm is immunostained with a rabbit antibody to TH (Chemicon, Temecula, Calif.) using the ABC method (ABC Elite Kit, Vector Laboratories, Burlingame, Calif.). The number of TH-positive neurons is quantified using stereo investigator software (MicroBrightfield, Williston, Vt.) by a previously described method (West, Trends in Neurosciences 22:51-61, 1999; Liang et al., J Neurosci 27:4326-4333, 2007).
Bars represent mean+S.E.M. n=6.

[8] = tested on: mice; assay: Open field test after 7 days of dosing; conditions: 15 mg/kg i.p. daily for 7 days; 3-4 h after last injection
Experimental: (§5) FIG. 15. The histograms of FIGS. 15A-15C appear in the order (left to right): control; MnCl2; AEOL 11114; AEOL 11207; AEOL 11203. Behavioral testing after dosing mice with AEOL11207, AEOL11114B or AEOL11203 (MnCl2 positive control). Mice (6 per group) were divided 5 groups treated with AEOL11207, AEOL11203, AEOL11114B, MnCl2 (all compound dissolved in 5% DMSO) or 5% DMSO alone by 15 mg/kg i.p. daily for a period of 7 days. At the end of treatment, mice were performed the behavioral tests by open field and accelerating rotorod test in 3-4 h after last injection. The total moving distance (FIG. 15A), moving velocity (FIG. 15B) in 5 minutes measured by open field test and the latency (seconds) from acceleration to fall from the rod (FIG. 15C) in the mice 7 days after injection of vehicle, MnCl2, AEOL11114, AEOL11207 and AEOL11203 i.p. (15 mg/kg daily). Bars represent mean+S.E.M. One-way, ANOVA, n=6-8 mice per group.
Open field test: The test is performed in mice treated with AEOL compounds or vehicle. The assessment is conducted over 2-4 days in a square arena mounted within specially designed sound-proof plexiglass shells. Each day a mouse is placed in the center of the open field arena and allowed to freely move about for 20-60 minutes while being tracked by an automated tracking system. […]

[9] = tested on: mice; assay: Accelerating rotarod test after 7 days of dosing; conditions: 15 mg/kg i.p. daily for 7 days; 3-4 h after last injection
Experimental: as §5
Motor behavior assessment by accelerating rotarod test follows the protocol of Hamm et al. (Ferret et al., Hepatology 33:1173-1180, 2001). Rotarod test is performed by using an automated rotarod (Ugo Basile, Comerio, Italy) after AEOLs or vehicle injections. Animals are tested two consecutive daily trials (1 hour apart) with an accelerating mode (15, 20, 25, 30, 35 and 40 rpm) in 240 seconds for total 5 days. The average latency to fall from the rod will be recorded. […]

Row | Compound | plasma concentration after i.p. administration ([1]; result in words) | penetration of the BBB [2] | concentration in the brain, stable for 24 hr after i.p. administration [2] | concentration in the brain after i.p. administration [2] | concentration in the brain after p.o. administration [2] | solubility [3] | protection against MPTP-induced striatal dopamine depletion ([4]; 15 mg/kg i.p.) | protection against MPTP-induced alteration of 3-NT/tyrosine ratio ([5]; 15 mg/kg x3 daily i.p.) | protection against MPTP-induced alteration of GSH/GSSG ([5]; 15 mg/kg x3 daily i.p.) | effect on striatal MPP+ levels [6] | bioavailability / pharmacokinetic properties, overall assessment [1] | also measured
1 | COC(=O)C1=C2C=CC(=N2)C(C(=O)OC)=c2ccc3[n]2[Mn+][n]2c1ccc2C(C(=O)OC)=C1C=CC(=N1)C=3C(=O)OC [AEOL11203] | relative high | penetrated the BBB | > 100 nM | good brain bioavailability | good brain bioavailability | good | statistically significant protection | significantly protected | significantly protected | none of the AEOL compounds tested altered the levels of MPP+ | – | plasma concentration after p.o. administration [1]: ~5000 nM; concentration in the brain for 24 hr after p.o. administration [2]: ~50 nM; efficacy in the MPTP mouse model, overall assessment ([4]; summary in words): promising efficacy
2 | CCCOC(=O)C1=C2C=CC(=N2)C(C(F)(F)F)=c2ccc3[n]2[Mn][n]2c1ccc2C(C(F)(F)F)=C1C=CC(=N1)C=3C(=O)OCCC [AEOL11216] | high plasma concentrations | penetrated the BBB | more than 100 nM | – | – | – | did not significantly prevent | significantly protected | significantly protected | – | – | protection against MPTP-induced dopaminergic (TH+) neuronal loss in the substantia nigra pars compacta ([7]; 15 mg/kg i.p.): significantly protected
3 | [Cl][Mn][Cl] [MnCl2] | – | – | – | – | – | – | – | – | – | – | – | open field test (total moving distance, moving velocity) versus other groups [8]: no statistically significant differences; accelerating rotorod test (latency to fall) versus other groups [9]: no statistically significant differences
4 | COC(=O)c1c2nc(c(C(F)(F)F)c3ccc([n-]3)c(C(=O)OC)c3nc(c(C(F)(F)F)c4ccc1[n-]4)C=C3)C=C2.[Cl-].[Mn+3] [AEOL11207] | – | – | – | – | – | – | – | – | – | none of the AEOL compounds tested altered the levels of MPP+ | – | –
5 | COC(=O)c1ccc(C2=C3C=CC(=N3)C(C(F)(F)F)=c3ccc4[n]3[Mn+][n]3c2ccc3C(C(F)(F)F)=C2C=CC(=N2)C=4c2ccc(C(=O)OC)cc2)cc1 [AEOL1114] | – | penetrated the BBB | > 200 nM | – | – | favorable solubility properties | statistically significant protection | significantly protected | significantly protected | none of the AEOL compounds tested altered the levels of MPP+ | good pharmacokinetic properties, brain penetration, oral bioavailability | plasma concentration after i.p. administration [1]: ~20000 nM; concentration in the brain for 24 hr after p.o. administration [2]: > 200 nM; protection against MPTP-induced striatal dopamine depletion ([4]; 15 mg/kg p.o.): statistically significant protection; protection against MPTP-induced dopaminergic (TH+) neuronal loss in the substantia nigra pars compacta ([7]; 15 mg/kg i.p.): prevents MPTP-induced loss of TH+ dopamine neurons; protection against MPTP-induced dopaminergic (TH+) neuronal loss in the substantia nigra pars compacta ([7]; 15 mg/kg p.o.): prevents MPTP-induced loss of TH+ dopamine neurons; protection against MPTP-induced alteration of 3-NT/tyrosine ratio ([5]; 15 mg/kg x3 daily p.o.): significantly protected; protection against MPTP-induced alteration of GSH/GSSG ([5]; 15 mg/kg x3 daily p.o.): significantly protected; efficacy against MPTP-induced oxidative stress, overall assessment ([5]; summary in words): efficacy against MPTP-induced oxidative stress
6 | COC(=O)c1ccc(C2=C3C=CC(=N3)C(C=O)=c3ccc4[n]3[Mn+][n]3c(ccc32)C(C=O)=C2C=CC(=N2)C=4c2ccc(C(=O)OC)cc2)cc1 [AEOL11209] | low but achievable | – | – | variable and relatively low | variable and relatively low | a major issue; also recorded: solubility issues | – | – | – | – | unfavorable pharmacokinetic or oral bioavailability; also recorded: poor bioavailability | –
7 | CCCOC(=O)C1=C2C=CC(=N2)C(C(=O)OCCC)=c2ccc3[n]2[Mn][n]2c1ccc2C(C(=O)OCCC)=C1C=CC(=N1)C=3C(=O)OCCC [AEOL11215] | moderate levels | – | – | not reliably detectable | – | – | – | – | – | – | poor bioavailability; also recorded: unfavorable pharmacokinetic or oral bioavailability | plasma concentration after p.o. administration ([1]; result in words): not reliably detected
8 | FC(F)(F)C1=C2C=CC(=N2)C(C(F)(F)F)=c2ccc3[n]2[Mn+][n]2c1ccc2C(C(F)(F)F)=C1C=CC(=N1)C=3C(F)(F)F [AEOL11256] | relatively low | – | – | undetectable | undetectable | a major issue | – | – | – | none of the AEOL compounds tested altered the levels of MPP+ | – | plasma concentration after p.o. administration ([1]; result in words): relatively low
